What was measured:
catecholamines = test: Catecholamine levels in rat brain and heart after dosing (HPLC with electrochemical detection); format: in vivo, rats; conditions: for selectivity (brain catecholamines versus heart catecholamines and 5-HT): compared with the methyl ester
Procedure: The animals are kept on a constant 12 hour day-night cycle, and body weights are measured daily. The animals are sacrificed by decapitation 12 to 24 hours after receiving the last dose of the test compound. Control animals receive the vehicle alone. Rats in single dose tests were fasted for 24 hours before administration of the test compound whilst rats in multiple dose tests were allowed free access to food and water. Immediately after death, the brain and heart (where appropriate) are removed and separately homogenized either by 50 ml phosphate buffer pH 6.8 for AADC determination or in icecold 0.4 M HC104 containing 0.05% (w/v) EDTA and 0.1% (w/v) sodium bisulfite for catecholamine determination. AADC activity is determined by the ^14C02 trapping method of J. Christenson, Archs. Biochem. Biophys. […] Catecholamines are determined by centrifuging the homogenate, adding the supernatant to alumina buffered to pH 8.0-8.4 to absorb the catecholamines, re-extracting the catecholamines from the alumina with 2.1 M HC104 and determining the catecholamines in the extracts using reversed-phase ion-pair HPLC with electrochemical detection.

[1] = target: T1, aromatic amino acid decarboxylase (AADC) (Rattus norvegicus, UniProt P14173); test: AADC activity in rat organ homogenates after dosing (14CO2 trapping method, DL-[1-14C]-dopa as substrate); format: in vivo, rats
T1 construct: the brain and heart (where appropriate) are removed and separately homogenized; from tissue; host or cells: rat brain and heart homogenates
T1 sequence (P14173 1-480): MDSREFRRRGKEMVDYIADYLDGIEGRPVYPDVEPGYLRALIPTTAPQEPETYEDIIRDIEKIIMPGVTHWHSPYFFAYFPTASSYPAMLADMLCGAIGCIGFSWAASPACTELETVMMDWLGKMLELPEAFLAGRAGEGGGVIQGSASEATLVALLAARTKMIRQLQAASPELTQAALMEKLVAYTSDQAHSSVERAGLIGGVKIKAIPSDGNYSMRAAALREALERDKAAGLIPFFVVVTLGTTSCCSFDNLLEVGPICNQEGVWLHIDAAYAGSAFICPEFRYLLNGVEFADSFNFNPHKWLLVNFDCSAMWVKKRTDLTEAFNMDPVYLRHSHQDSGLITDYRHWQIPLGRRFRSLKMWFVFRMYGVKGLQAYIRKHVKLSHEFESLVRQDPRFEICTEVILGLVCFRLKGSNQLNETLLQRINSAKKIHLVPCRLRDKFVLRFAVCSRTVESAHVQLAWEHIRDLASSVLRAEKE
Procedure: (§1) The animals are kept on a constant 12 hour day-night cycle, and body weights are measured daily. The animals are sacrificed by decapitation 12 to 24 hours after receiving the last dose of the test compound. Control animals receive the vehicle alone. Rats in single dose tests were fasted for 24 hours before administration of the test compound whilst rats in multiple dose tests were allowed free access to food and water.
Immediately after death, the brain and heart (where appropriate) are removed and separately homogenized either by 50 ml phosphate buffer pH 6.8 for AADC determination or in icecold 0.4 M HC104 containing 0.05% (w/v) EDTA and 0.1% (w/v) sodium bisulfite for catecholamine determination. AADC activity is determined by the ^14C02 trapping method of J. Christenson, Archs. Biochem. Biophys. 141, 356 (1970) using DL-[1-14C] -dopa as the substrate. Catecholamines are determined by centrifuging the homogenate, adding the supernatant to alumina buffered to pH 8.0-8.4 to absorb the catecholamines, re-extracting the catecholamines from the alumina with 2.1 M HC104 and determining the catecholamines in the extracts using reversed-phase ion-pair HPLC with electrochemical detection.

Serotonin (5-HT) = Serotonin (5-HT) levels in rat organs after dosing (standard techniques); format: in vivo, rats
Procedure: as §1
In the brain, doses of 10 mg/kg and 200 mg/kg produced a 10% reduction and a 70-80% reduction of AADC activity, respectively. […] In the heart, no reduction of norepinephrine is noted up to a dose of 200 mg/kg. When tested after multiple administration of 10, 25, or 50 mg/kg given daily for six days in rats sacrificed 24 hours after the sixth dose, the compound produced a 50% decrease in brain norephinephrine at a dose of 10 mg/kg (daily). […] Serotonin (5-HT) levels, as assessed by standard techniques, are not altered in the brain even at the highest dose tested.

[2] = Stability of the compound; format: physicochemical
AADC = target: T2, AADC (Homo sapiens, UniProt P20711); test: AADC inhibition, general statement (method not given)
T2 sequence (P20711 1-480): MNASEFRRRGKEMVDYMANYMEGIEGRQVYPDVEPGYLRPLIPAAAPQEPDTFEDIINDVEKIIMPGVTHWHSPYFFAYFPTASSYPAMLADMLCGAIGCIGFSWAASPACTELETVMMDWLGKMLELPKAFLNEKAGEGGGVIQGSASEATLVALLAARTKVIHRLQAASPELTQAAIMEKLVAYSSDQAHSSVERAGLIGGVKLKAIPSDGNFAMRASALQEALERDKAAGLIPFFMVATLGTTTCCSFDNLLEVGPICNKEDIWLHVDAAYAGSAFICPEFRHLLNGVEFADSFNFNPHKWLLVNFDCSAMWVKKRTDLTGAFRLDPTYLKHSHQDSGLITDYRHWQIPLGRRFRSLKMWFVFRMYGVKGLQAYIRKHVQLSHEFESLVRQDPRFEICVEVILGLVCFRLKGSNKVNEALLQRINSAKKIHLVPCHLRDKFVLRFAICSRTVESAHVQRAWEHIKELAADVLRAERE

Solubility in water = format: physicochemical; conditions: neutral pH
[3] = heart, up to a dose of 200 mg/kg

NC(CF)(Cc1ccc(O)c(O)c1)C(=O)O (centres unmarked) [Fluoromethyl dopa, reference compound]
selectivity (brain catecholamines versus heart catecholamines and 5-HT) (catecholamines): does not exhibit the selectivity

COC(=O)[C@@H]1[C@H]2C[C@H]3c4[nH]c5ccccc5c4CCN3C[C@@H]2CC[C@@H]1O [Yohimbine, reference compound]
metabolite MOPEG-sulfate (catecholamines; yohimbine alone): increase
norepinephrine (catecholamines; yohimbine alone): decrease

COC(=O)C(N)(CF)Cc1ccc(O)cc1 (centres unmarked) [methyl 2-amino-2-fluoromethyl-3-(4-hydroxyphenyl)propionate]
inhibition of AADC activity ([1]; animals pretreated with haloperidol, compared with non-haloperidol treated animals): more pronounced
extent of inhibition of AADC activity in the brain ([1]; brain, co-administration of -methyl tyrosine (inhibitor of tyrosine hydroxylase)): reduces the extent of inhibition
AADC activity in the heart [1, 3]: not reduced significantly
inhibition at 10 mg/kg ([1]; rat, brain, dose 10 mg/kg, read-out: reduction of AADC activity): 10%
endogenous 5-HT levels in the brain and heart (Serotonin (5-HT); brain and heart, summary statement): substantially unaltered
Serotonin (5-HT) levels in the brain (Serotonin (5-HT); brain, multiple administration, even at the highest dose tested): not altered
additional decrease of norepinephrine produced by yohimbine (catecholamines; animals treated for 2 weeks with 10 mg/kg methyl ester, same dose of yohimbine): no longer produces an additional decrease
decrease in brain norephinephrine (catecholamines; brain, 10 mg/kg daily for six days, sacrificed 24 hours after the sixth dose): 50%
Brain dopamine decreased (catecholamines; brain, 50 mg/kg daily for six days): 50%
Brain norepinephrine decreased (catecholamines; brain, dose 10 mg/kg): 15-20%
dopamine decreased (catecholamines; brain, dose 50 mg/kg): decreased significantly
Brain norepinephrine decreased (catecholamines; brain, dose 200 mg/kg): 50%
dopamine decreased (catecholamines; brain, dose 200 mg/kg): 75%
decrease in brain norephinephrine (catecholamines; brain, higher doses (25 or 50 mg/kg daily for six days) compared with 10 mg/kg): do not give an additional response
Brain dopamine (catecholamines; brain, lower doses (10, 25 mg/kg daily for six days)): no significant effect
endogenous catecholamine levels in the brain (catecholamines; brain, summary statement): effective in lowering
decrease of norepinephrine over yohimbine (catecholamines; combined with yohimbine, up to 8 days of methyl ester treatment): small additional decrease
Heart norepinephrine (catecholamines; heart, multiple administration (10, 25 or 50 mg/kg daily for six days), any dose): not significantly changed
reduction of norepinephrine in the heart (catecholamines; [3]): no reduction

CC(C)(C)OC(=O)C(N)(CF)Cc1ccc(O)cc1 (centres unmarked) [tert-butyl 2-fluoromethyl-2-amino-3-(4-hydroxyphenyl)-propionate]
stability [2]: relatively unstable

NC(CF)(Cc1ccc(O)cc1)C(=O)O (stereo not drawn) [α-fluoromethyl tyrosine, 2-fluoromethyl-2-amino-3-(4-hydroxyphenyl)-propionic acid]
AADC inhibition (AADC): weak AADC inhibitor
selectivity (brain catecholamines versus heart catecholamines and 5-HT) (catecholamines): same degree of selectivity is not found
solubility in water (Solubility in water): insoluble
